In ChEMBL document CHEMBL3351973, “4(α-l-rhamnosyloxy)-benzyl isothiocyanate, a bioactive phytochemical that attenuates secondary damage in an experimental model of spinal cord injury” (Bioorg Med Chem, 2015):
Activity calls are given as the source filed them.

What was measured:
Type in all cases: functional, organism-based
Parameters in all cases: dose 10 mg/kg
Mus musculus [1] = assay: Antiapoptotic activity in CD-1 mouse spinal cord injury model assessed as reduction in Bax level at 10 mg/kg, ip measured on day 7 by immunohistological analysis relative to control
Mus musculus [2] = assay: Protection against injury in CD-1 mouse spinal cord injury model assessed as infiltration of leukocyte at 10 mg/kg, ip measured on day 7 by hematoxylin/eosin staining-based assay relative to control
Mus musculus [3] = assay: Antiinflammatory activity in CD-1 mouse spinal cord injury model assessed as reduction of NF-kappaB-p65 level at 10 mg/kg, ip measured on day 7 by immunohistological analysis relative to control
Mus musculus [4] = assay: Antiapoptotic activity in CD-1 mouse spinal cord injury model assessed as increase in Bcl-2 level at 10 mg/kg, ip measured on day 7 by immunohistological analysis relative to control
Mus musculus [5] = assay: Antiinflammatory activity in CD-1 mouse spinal cord injury model assessed as IkappaB-alpha expression at 10 mg/kg, ip measured on day 7 by Western blotting analysis relative to control
Mus musculus [6] = assay: Protection against injury in CD-1 mouse spinal cord injury model assessed as edema at 10 mg/kg, ip measured on day 7 by hematoxylin/eosin staining-based assay relative to control
Mus musculus [7] = assay: Neuroprotective activity in CD-1 mouse spinal cord injury model assessed as alteration of white matter at 10 mg/kg, ip measured on day 7 by hematoxylin/eosin staining-based assay relative to control
Mus musculus [8] = assay: Antiapoptotic activity in CD-1 mouse spinal cord injury model assessed as reduction in caspase expression at 10 mg/kg, ip measured on day 7 by Western blotting analysis relative to control
Mus musculus [9] = assay: Protection against injury in CD-1 mouse spinal cord injury model assessed as distribution of reticular fibre at 10 mg/kg, ip measured on day 7 by hematoxylin/eosin staining-based assay relative to control
Mus musculus [10] = assay: Antiinflammatory activity in CD-1 mouse spinal cord injury model assessed as reduction in iNOS expression at 10 mg/kg, ip measured on day 7 by immunohistological analysis relative to control

Measured: Activity

C[C@@H]1O[C@@H](Oc2ccc(CN=C=S)cc2)[C@H](O)[C@H](O)[C@H]1O
active: all assays above
